The results in this text go back to patent US8349835B2, “Aromatic ring fused triazine derivatives and uses thereof” (Shenyang Pharmaceutical University, priority 2008, dated 2013).

Experiment [1] has as its system chorioallantoic membrane vessels. Nature of the experiment: Activity test by chick chorioallantoic membrane method. The settings on record: 5 uL medicine on cellulose membrane, chick embryo, 2 days. It is filed as in vivo. As to the method:
After the shell membrane became wet, tore it open with ophthalmological tweezers so to expose the chorioallantoic membrane. • 6) Added 5 uL of selected medicine to a 0.5×0.5 cm cellulose membrane sterilized by high pressure, then set the membrane on the part of the chorioallantoic membrane with fewer vessels • 7) Closed the window, and put the embryos back into the hatch box to hatch for 2 days. • 8) Opened the transparent tape, and then opened the mixed cellulose membrane lightly with a tweezers. Measured the avascular area and took photographs.

For another experiment, the system named is Rat aortic ring. Description: Rat Aortic Ring Assay. It is filed as cell-based. To be noted: for Rat Aortic Ring Assay (10 ug/ml), result in words: observed on the sixth day. The source says: Rat Aortic Ring Assay • 1) 6 week old SD […] (Sprague Dawley) were selected for the experiments. Cleaned abdominal skin with 75% ethanol to disinfect, and then anesthetized the mice with ether, • 2) Carefully removed the abdominal aortas and transferred the aortas to normal saline. Excessive vascular tissues were carefully removed with scissors. • 3) The aortas were rinsed with normal saline until no blood stain remained. • 4) Sectioned the aortas into one millimeter depth arterial slices with ophthalmological scissors. • 5) Add 50 μL pre-thawed Matrigel to each well of the pre-cooled 96 well cell culture plates, and embedded the ring-shaped mouse aortas in collagen gel. • 6) Incubated for 60 minutes at 37° C. to solidificate the gel. • 7) Added DMEM culture solution containing 10% FBS, along with different concentrations of the selected compounds into the wells and cultured in the incubator. Every compound was repeated in no less than 3 wells. • 8) Replaced with the fresh medium and changed the medicine once on the third day. • 9) Took out the pates on the sixth day, and observed the vascular growth with Microscope (OLYMPUS, DP70, Japan) and took photographs(×100). Randomly chose 3 arterial rings to photograph and calculated the area covered by micro-vascular with Image Pro Plus software. The inhibition rate is calculated as:
[formula] • Evaluation criteria: ⋆inhibition rate[…]; ⋆⋆inhibition rate 60-90%; ⋆⋆⋆inhibition rate>90%.

In the next experiment the target is VEGFR-2 (Homo sapiens, UniProt P35968). Description: VEGFR-2 inhibition rate test (kinase assay kit, colorimetric ELISA). The settings on record: concentration not given.
Sequence of VEGFR-2 (P35968 20-1356): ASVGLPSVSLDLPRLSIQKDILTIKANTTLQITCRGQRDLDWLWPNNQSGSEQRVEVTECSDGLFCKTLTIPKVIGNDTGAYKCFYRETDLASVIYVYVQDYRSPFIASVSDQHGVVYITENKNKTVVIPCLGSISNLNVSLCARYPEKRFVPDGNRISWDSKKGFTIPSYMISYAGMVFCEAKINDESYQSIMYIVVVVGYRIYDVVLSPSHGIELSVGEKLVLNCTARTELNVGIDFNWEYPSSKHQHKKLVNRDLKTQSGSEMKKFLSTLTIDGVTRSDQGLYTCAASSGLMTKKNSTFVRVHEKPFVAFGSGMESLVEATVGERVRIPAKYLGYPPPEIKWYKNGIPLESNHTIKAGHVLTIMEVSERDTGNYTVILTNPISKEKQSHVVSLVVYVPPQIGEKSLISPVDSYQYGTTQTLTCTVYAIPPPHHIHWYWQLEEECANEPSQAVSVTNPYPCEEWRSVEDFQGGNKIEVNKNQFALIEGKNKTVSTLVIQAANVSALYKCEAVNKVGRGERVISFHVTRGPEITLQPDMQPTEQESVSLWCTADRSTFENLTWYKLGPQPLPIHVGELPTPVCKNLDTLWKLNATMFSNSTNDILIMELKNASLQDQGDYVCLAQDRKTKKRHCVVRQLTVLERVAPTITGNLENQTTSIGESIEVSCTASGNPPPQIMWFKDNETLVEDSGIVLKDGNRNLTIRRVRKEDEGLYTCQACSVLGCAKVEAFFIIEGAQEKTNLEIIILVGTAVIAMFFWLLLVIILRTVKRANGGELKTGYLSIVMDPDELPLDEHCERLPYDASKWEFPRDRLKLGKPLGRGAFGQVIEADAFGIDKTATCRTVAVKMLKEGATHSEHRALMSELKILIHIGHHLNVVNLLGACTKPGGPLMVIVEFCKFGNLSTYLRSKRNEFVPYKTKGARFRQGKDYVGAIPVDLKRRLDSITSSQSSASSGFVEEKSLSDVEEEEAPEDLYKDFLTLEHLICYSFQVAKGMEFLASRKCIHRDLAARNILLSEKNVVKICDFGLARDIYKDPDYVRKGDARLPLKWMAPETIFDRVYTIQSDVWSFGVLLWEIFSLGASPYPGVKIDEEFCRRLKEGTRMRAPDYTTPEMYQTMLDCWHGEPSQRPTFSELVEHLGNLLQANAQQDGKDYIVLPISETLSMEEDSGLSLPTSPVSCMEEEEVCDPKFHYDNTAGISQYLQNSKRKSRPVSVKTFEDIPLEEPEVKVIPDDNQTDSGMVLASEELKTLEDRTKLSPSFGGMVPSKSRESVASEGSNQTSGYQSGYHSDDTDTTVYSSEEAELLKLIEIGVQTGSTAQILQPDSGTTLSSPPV

In the case of `Fc1ccccc1Nc1nnnc2ccccc12` [Example 3, 4-(2-fluoroanilino)-benzo[d][1,2,3]triazine], in experiment [1], the “The inhibitory effect on the growth of chorioallantoic membrane vessels” value (shortened to “The inhibitory effect on the growth”) is on record as “Significant inhibition in two of three samples,”. Besides, the “Rat Aortic Ring Assay (10 ug/ml), result in words” value (from here on “Rat Aortic Ring Assay (10 ug/ml)”) in the experiment on Rat aortic ring is given as “No significant inhibition”. The “Kinase inhibition rate (VEGFR-2)” value at VEGFR-2 turned out to be 19.78.

Take `FC(F)(F)Oc1ccc(Nc2nnnc3ccccc23)cc1` [Example 6, 4-(4-trifluoromethoxyanilino)-benzo[d][1,2,3]triazine]: the “The inhibitory effect on the growth” value in experiment [1] was “One of the two samples exhibits significant fracture,”. Further, the “Rat Aortic Ring Assay (10 ug/ml)” value with Rat aortic ring is given as “No significant inhibition”. Moreover, at VEGFR-2, the “Kinase inhibition rate (VEGFR-2)” value was −33.42.

As for `FC(F)(F)Oc1cccc(Nc2nnnc3ccccc23)c1` [Example 7, 4-(3-trifluoromethoxyanilino)-benzo[d][1,2,3]triazine], in experiment [1], the “The inhibitory effect on the growth” value is reported as “Two samples exhibit significant inhibition ring”. Besides, the “Rat Aortic Ring Assay (10 ug/ml)” value in the experiment on Rat aortic ring is recorded as “No significant inhibition”. The “Kinase inhibition rate (VEGFR-2)” value on VEGFR-2 was −17.64.

As to `CCCCOc1cc2nnnc(Nc3cccc(OC(F)(F)F)c3)c2cc1OC` [Example 19, 6-methoxy-7-n-butoxy-4-(3-trifluoromethoxyanilino)-benzo[d][1,2,3]triazine], in experiment [1], the “The inhibitory effect on the growth” value is “Vessels are broken in one of two samples,”. In addition, the “Rat Aortic Ring Assay (10 ug/ml)” value with Rat aortic ring is recorded as “No significant inhibition compared with the blank control”. Moreover, at VEGFR-2, the “Kinase inhibition rate (VEGFR-2)” value is listed as −56.68.

Consider `CCCCOc1cc2nnnc(Nc3cccc(Cl)c3)c2cc1OC` [Example 21, 6-methoxy-7-n-butoxy-4-(3-chloroanilino)-benzo[d][1,2,3]triazine], for which the “The inhibitory effect on the growth” value in experiment [1] was “The vessels covered by paper become thinner, and another embryo is dead”. For the same compound, the “Rat Aortic Ring Assay (10 ug/ml)” value in the experiment with Rat aortic ring was “No significant inhibition”. Further, the “Kinase inhibition rate (VEGFR-2)” value at VEGFR-2 came to 2.40.

Turning to `CCOc1cc2nnnc(Nc3ccc(F)c(Cl)c3)c2cc1OC` [Example 39, 6-methoxy-7-ethoxy-4-(3-chloro-4-fluoroanilino)-benzo[d][1,2,3]triazine], the “The inhibitory effect on the growth” value in experiment [1] is “One embryo is dead, and the other exhibits no significant inhibition”. The “Rat Aortic Ring Assay (10 ug/ml)” value in the experiment with Rat aortic ring is recorded as “No significant inhibition”. On VEGFR-2, the “Kinase inhibition rate (VEGFR-2)” value was 46.67.

Consider `CCOc1cc2nnnc(Nc3cccc(Br)c3)c2cc1OC` [Example 42, 6-methoxy-7-ethoxy-4-(3-bromoanilino)-benzo[d][1,2,3]triazine], for which the “The inhibitory effect on the growth” value in experiment [1] is listed as “One of the two samples exhibits inhibition”. In addition, the inhibition at 10 µg/mL with Rat aortic ring (Rattus norvegicus, 10 ug/ml, compared with blank control, sixth day) is around 40%.

`CCCCCOc1cc2nnnc(Nc3cccc(C(F)(F)F)c3)c2cc1OC` [Example 50, 6-methoxy-7-pentyloxy-4-(3-trifluoromethylanilino)-benzo[d][1,2,3]triazine]: in experiment [1], the “The inhibitory effect on the growth” value is on record as “One of the two samples exhibits inhibition ring”. For the same compound, the “Rat Aortic Ring Assay (10 ug/ml)” value with Rat aortic ring is recorded as “No significant inhibition compared with the blank control”. Further, the “Kinase inhibition rate (VEGFR-2)” value on VEGFR-2 was −9.35.

Consider `CCCCCOc1cc2nnnc(Nc3ccc(C(F)(F)F)cc3)c2cc1OC` [Example 51, 6-methoxy-7-pentyloxy-4-(4-trifluoromethylanilino)-benzo[d][1,2,3]triazine], for which, in experiment [1], the “The inhibitory effect on the growth” value is on record as “The samples exhibit significant inhibition ring”. Moreover, in the experiment on Rat aortic ring, the “Rat Aortic Ring Assay (10 ug/ml)” value is given as “No significant inhibition”. At VEGFR-2, the “Kinase inhibition rate (VEGFR-2)” value is given as −18.71.

For `CCCCCOc1cc2nnnc(Nc3ccc(F)cc3)c2cc1OC` [Example 59, 6-methoxy-7-pentyloxy-4-(4-fluoroanilino)-benzo[d][1,2,3]triazine], in experiment [1], the “The inhibitory effect on the growth” value is listed as “The vessels become fewer, but not thinner. The medicine precipitates out”. Also, the “Rat Aortic Ring Assay (10 ug/ml)” value with Rat aortic ring is “No significant inhibition”.

The inhibition is the relative decrease from the control value, in per cent.
